# Assay results: US20240383908A1, “SYNTHESIS AND APPLICATION OF PHOSPHATASE DEGRADER” (HINOVA PHARMACEUTICALS INC., priority 2021, published 2024)
# Where a name gives a salt, the structure may show the parent alone.
# Target: T1, SHP2 protein (Homo sapiens, UniProt Q06124)
# T1 sequence (Q06124 1-593): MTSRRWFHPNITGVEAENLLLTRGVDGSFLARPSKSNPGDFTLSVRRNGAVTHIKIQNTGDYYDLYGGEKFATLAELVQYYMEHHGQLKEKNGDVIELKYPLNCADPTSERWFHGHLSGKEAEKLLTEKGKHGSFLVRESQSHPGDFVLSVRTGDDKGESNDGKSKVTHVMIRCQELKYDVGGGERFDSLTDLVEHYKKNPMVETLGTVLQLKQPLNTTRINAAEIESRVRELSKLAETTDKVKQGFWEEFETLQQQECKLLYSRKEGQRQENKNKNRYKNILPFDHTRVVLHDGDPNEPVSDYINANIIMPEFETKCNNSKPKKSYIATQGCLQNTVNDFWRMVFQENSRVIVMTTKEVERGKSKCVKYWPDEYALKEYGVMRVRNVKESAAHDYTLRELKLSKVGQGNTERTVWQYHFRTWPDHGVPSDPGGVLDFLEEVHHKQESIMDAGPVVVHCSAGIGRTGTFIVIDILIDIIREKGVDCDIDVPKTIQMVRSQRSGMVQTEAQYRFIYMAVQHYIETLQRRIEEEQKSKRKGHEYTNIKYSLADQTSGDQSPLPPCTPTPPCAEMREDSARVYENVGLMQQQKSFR
# Experiment: Degradation activity on SHP2 protein in MIA Paca-2 cells (Western blot, DC50)
# Assay type: cell-based
# Parameters: endogenous in cells; host or cells: MIA Paca-2 cells
# Settings: read-out: Degradation activity for differenct cell lines MIA Paca-2 (DC50)
# Procedure, shortened: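 DC50 is the concentration degrading 50% of SHP2 relative to DMSO control. It was derived by fitting Western blot band densitometry (anti-SHP2, GAPDH reference) from cells exposed 24 h to 0.1–100 nM compound in 0.1% DMSO.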
row,DC50 [nM],SMILES
1,< 100,C[C@@H]1OCC2(CCN(c3cnc(Sc4cccc(NC(=O)c5ccc(N6CCC(N7CC=C(c8ccc(C(=O)NCc9ccc%10c(c9)CN(C9CCC(=O)NC9=O)C%10=O)nn8)CC7)CC6)cc5)c4)cn3)CC2)[C@@H]1N (stereo partly shown) [Compound 328]
2,100 to 1000,C[C@@H]1OCC2(CCN(c3cnc(Sc4cccc(NC(=O)c5ccc(N6CCC(N7CC=C(c8ccc(C(=O)NCc9ccc%10c(c9)CN(C9CCC(=O)NC9=O)C%10=O)c(F)n8)CC7)CC6)c(F)c5)c4)cn3)CC2)[C@@H]1N (stereo partly shown) [Compound 472]
3,100 to 1000,CC1(N)CCN(c2cnc(Sc3cccc(NC(=O)c4ccc(N5CCC(N6CC=C(c7cnc(C(=O)NCc8ccc9c(c8)CN(C8CCC(=O)NC8=O)C9=O)c(Cl)c7)CC6)CC5)nc4)c3)cn2)CC1 (stereo not shown) [Compound 431]
4,100 to 1000,Cc1cc(C(=O)Nc2cccc(Sc3cnc(N4CCC(C)(N)CC4)cn3)c2)ccc1N1CCC(N2CC=C(c3ccc(C(=O)NCc4ccc5c(c4)CN(C4CCC(=O)NC4=O)C5=O)cc3)CC2)CC1 (stereo not shown) [Compound 453]
5,> 1000,CC1(N)CCN(c2cnc(Sc3cccc(NC(=O)CCCCCOc4ccc(-c5ccc(C(=O)NCc6ccc7c(c6)CN(C6CCC(=O)NC6=O)C7=O)nc5)cc4)c3)cn2)CC1 (stereo not shown) [Compound 213]
6,> 1000,CC1(N)CCN(c2cnc(Sc3cccc(NC(=O)C4CC(N5CC=C(c6ccc(C(=O)NCc7ccc8c(c7)C(=O)N(C7CCC(=O)NC7=O)C8)nc6)CC5)C4)c3)cn2)CC1 (stereo not shown) [Compound 302]
7,> 1000,C[C@@H]1OCC2(CCN(c3cnc(Sc4cccc(NC(=O)C5CCC(N6CCN(c7ccc(C(=O)NCc8ccc9c(c8)CN(C8CCC(=O)NC8=O)C9=O)nn7)CC6)CC5)c4)cn3)CC2)[C@@H]1N (stereo partly shown) [Compound 476]
8,> 1000,CC1(N)CCN(c2cnc(Sc3cccc(NC(=O)c4ccc(N5CCC(N6CCN(c7ccc(C(=O)NCc8ccc9c(c8)CN(C8CCC(=O)NC8=O)C9=O)nn7)CC6)CC5)cn4)c3)cn2)CC1 (stereo not shown) [Compound 447]
9,> 1000,CC1(N)CCN(c2cnc(Sc3cccc(NC(=O)c4ccc(-c5ccc(N6CCC7(CC6)CC(C(=O)NCc6ccc8c(c6)CN(C6CCC(=O)NC6=O)C8=O)C7)cc5)cc4)c3)cn2)CC1 (stereo not shown) [Compound 415]
10,100 to 1000,CC1(N)CCN(c2cnc(Sc3cccc(NC(=O)c4ccc(N5CCC(N6CC=C(c7cnc(C(=O)NCc8ccc9c(c8)CN(C8CCC(=O)NC8=O)C9=O)c(F)c7)CC6)CC5)nc4)c3)cn2)CC1 (stereo not shown) [Compound 428]
11,> 1000,C[C@@H]1OCC2(CCN(c3cnc(Sc4cccc(NC(=O)CCN5CCN(c6ccc(C(=O)NCc7ccc8c(c7)CN(C7CCC(=O)NC7=O)C8=O)nn6)CC5)c4)cn3)CC2)[C@@H]1N (stereo partly shown) [Compound 289]
12,> 1000,CC1(N)CCN(c2cnc(Sc3cccc(NCC4CCC(N5CCN(c6ccc7c(c6)CN(C6CCC(=O)NC6=O)C7=O)CC5)CC4)c3)cn2)CC1 (stereo not shown) [Compound 256]
13,> 1000,"CC1(N)CCN(c2cnc(Sc3cccc(NC(=O)C4CC45CCC(N4CC=C(c6ccc(C(=O)NCc7ccc8c(c7)CN(C7CCC(=O)NC7=O)C8=O)nn6)CC4)CC5)c3)cn2)CC1 (single isomer, unassigned) [Compound 319]"
14,< 100,CC1(N)CCN(c2cnc(Sc3cccc(NC(=O)c4ccc(N5CCC(N6CCN(c7ccc(C(=O)NCc8ccc9c(c8)CN(C8CCC(=O)NC8=O)C9=O)nc7)CC6)CC5)cc4F)c3)cn2)CC1 (stereo not shown) [Compound 392]
15,< 100,C[C@@H]1OCC2(CCN(c3cnc(Sc4cccc(NC(=O)c5ccc(N6CCC(N7CC=C(c8ccc(C(=O)NCc9ccc%10c(c9)CN(C9CCC(=O)NC9=O)C%10=O)nn8)CC7)C6)cc5)c4)cn3)CC2)[C@@H]1N (stereo partly shown) [Compound 520]
16,< 100,Cc1cc(C(=O)NCc2ccc3c(c2)CN(C2CCC(=O)NC2=O)C3=O)ncc1C1=CCN(C2CCN(c3ccc(C(=O)Nc4cccc(Sc5cnc(N6CCC(C)(N)CC6)cn5)c4)cc3)CC2)CC1 (stereo not shown) [Compound 480]
17,< 100,CC1(N)CCN(c2cnc(Sc3cccc(NC(=O)c4cnc(N5CCC(N6CCN(c7ccc(C(=O)NCc8ccc9c(c8)CN(C8CCC(=O)NC8=O)C9=O)nn7)CC6)CC5)cn4)c3)cn2)CC1 (stereo not shown) [Compound 509]
18,> 1000,CC1(N)CCN(c2cnc(Sc3cccc(NC(=O)c4csc(N5CCC(N6CC=C(c7ccc(C(=O)NCc8ccc9c(c8)CN(C8CCC(=O)NC8=O)C9=O)nc7)CC6)CC5)n4)c3)cn2)CC1 (stereo not shown) [Compound 358]
19,> 1000,CC1(N)CCN(c2cnc(Sc3cccc(NC(=O)c4ccc(N5CCC(N6CC=C(c7ncc(C(=O)NCc8ccc9c(c8)CN(C8CCC(=O)NC8=O)C9=O)o7)CC6)CC5)c(F)c4)c3)cn2)CC1 (stereo not shown) [Compound 417]

row,DC50 [nM],SMILES
1,< 100,CC1(N)CCN(c2cnc(Sc3cccc(NC(=O)c4ccc(C5=CCC(N6CC=C(c7ccc(C(=O)N8CCN(c9ccc%10c(c9)CN(C9CCC(=O)NC9=O)C%10=O)CC8)nc7)CC6)CC5)cc4)c3)cn2)CC1 (stereo not shown) [Compound 308]
2,< 100,COCC1(N)CCN(c2cnc(Sc3cccc(NC(=O)c4ccc(N5CCC(N6CC=C(c7ccc(C(=O)NCc8ccc9c(c8)CN(C8CCC(=O)NC8=O)C9=O)nc7)CC6)CC5)cc4)c3)cn2)CC1 (stereo not shown) [Compound 434]
3,> 1000,Cc1cc(C(=O)Nc2cccc(Sc3cnc(N4CCC(C)(N)CC4)cn3)c2)ccc1N1CCC(N2CC=C(c3cnc(C(=O)NCc4ccc5c(c4)CN(C4CCC(=O)NC4=O)C5=O)c(Cl)c3)CC2)CC1 (stereo not shown) [Compound 440]
4,< 100,NC1(CO)CCN(c2cnc(Sc3cccc(NC(=O)c4ccc(N5CCC(N6CC=C(c7ccc(C(=O)NCc8ccc9c(c8)CN(C8CCC(=O)NC8=O)C9=O)nc7)CC6)CC5)cc4)c3)cn2)CC1 (stereo not shown) [Compound 336]
5,> 1000,CC1(N)CCN(c2ccc(-c3cccc(NC(=O)c4ccc(N5CCC(N6CC=C(c7ccc(C(=O)NCc8ccc9c(c8)CN(C8CCC(=O)NC8=O)C9=O)nn7)CC6)CC5)cc4)c3)cn2)CC1 (stereo not shown) [Compound 408]
6,< 100,CC1(N)CCN(c2cnc(Sc3cccc(NC(=O)c4ccc(N5CCC(N6CCN(c7nnc(C(=O)NCc8ccc9c(c8)CN(C8CCC(=O)NC8=O)C9=O)cc7Cl)CC6)CC5)c(F)c4)c3)cn2)CC1 (stereo not shown) [Compound 493]
7,100 to 1000,CC1(N)CCN(c2cnc(Sc3cccc(NC(=O)c4cc(F)c(N5CCC(N6CC=C(c7ccc(C(=O)NCc8ccc9c(c8)CN(C8CCC(=O)NC8=O)C9=O)nc7)CC6)CC5)c(F)c4)c3)cn2)CC1 (stereo not shown) [Compound 471]
8,> 1000,CC1(N)CCN(c2cnc(Sc3cccc(NC(=O)c4ccc(N5CCC(N6CCN(c7nnc(C(=O)NCc8ccc9c(c8)CN(C8CCC(=O)NC8=O)C9=O)cc7Cl)CC6)CC5)cc4)c3)cn2)CC1 (stereo not shown) [Compound 491]
9,> 1000,C[C@@H]1OCC2(CCN(c3cnc(Sc4cccc(NC(=O)c5ccc(CN6CCN(c7ccc8c(c7)C(=O)N(C7CCC(=O)NC7=O)C8=O)CC6)cc5)c4)cn3)CC2)[C@@H]1N (stereo partly shown) [Compound 287]
10,< 100,C[C@@H]1OCC2(CCN(c3cnc(Sc4cccc(NC(=O)C5CC6(C5)CC(N5CC=C(c7ccc(C(=O)NCc8ccc9c(c8)CN(C8CCC(=O)NC8=O)C9=O)nc7)CC5)C6)c4)cn3)CC2)[C@@H]1N (stereo partly shown) [Compound 473]
11,> 1000,CC1(N)CCN(c2cnc(Sc3cccc(NC(=O)c4ccc(CN5CCN(c6ccc7c(c6)CN(C6CCC(=O)NC6=O)C7=O)CC5)cc4)c3)cn2)CC1 (stereo not shown) [Compound 286]
12,< 100,CC1(N)CCN(c2cnc(Sc3cccc(NC(=O)c4ccc(N5CCC(N6CCN(c7nnc(C(=O)NCc8ccc9c(c8)CN(C8CCC(=O)NC8=O)C9=O)cc7Cl)CC6)CC5)nc4)c3)cn2)CC1 (stereo not shown) [Compound 492]
13,> 1000,C[C@@H]1OCC2(CCN(c3cnc(Sc4cccc(NC(=O)CCN5CC=C(c6ccc(C(=O)N7CCN(c8ccc9c(c8)CN(C8CCC(=O)NC8=O)C9=O)CC7)nc6)C(C)(C)C5)c4)cn3)CC2)[C@@H]1N (stereo partly shown) [Compound 276]
14,> 1000,CC1(N)CCN(c2cnc(Sc3cccc(NC(=O)C4CCC(N5CCN(c6ccc7c(c6)C(=O)N(C6CCC(=O)NC6=O)C7=O)CC5)CC4)c3)cn2)CC1 (stereo not shown) [Compound 270]
15,> 1000,COCC1(N)CCN(c2cnc(Sc3cccc(NC(=O)c4ccc(N5CCC(N6CC=C(c7ccc(C(=O)NCc8ccc9c(c8)CN(C8CCC(=O)NC8=O)C9=O)nn7)CC6)CC5)cc4)c3)cn2)CC1 (stereo not shown) [Compound 433]
16,< 100,"C[C@@H]1OCC2(CCN(c3cnc(Sc4cccc(NC(=O)c5ccc(N6CCC(N7CC=C(c8ccc(C(=O)NCc9ccc%10c(c9)CN(C9CCC(=O)NC9=O)C%10=O)nc8F)CC7)CC6)c(F)c5)c4)cn3)CC2)[C@@H]1N (stereo partly drawn) [Compound 483, 1′-(1-(4-((3-((5-((3S,4S)-4-amino-3-methyl-2-oxa-8-azaspiro[4.5]decan-8-yl)pyrazin-2-yl)thio)phenyl)aminoformyl)-2-fluorophenyl)piperidin-4-yl)-N-((2-(2,6-dioxopiperidin-3-yl)-1-oxoisoindol-5-yl)methyl)-2-fluoro-1′,2′,3′,6′-tetrahydro-[3,4′-bipyridine]-6-formamide hydrochloride]"
17,< 100,C[C@@H]1OCC2(CCN(c3cnc(Sc4cccc(NC(=O)C5CC(N6CC=C(c7ccc(C(=O)NCc8ccc9c(c8)CN(C8CCC(=O)NC8=O)C9=O)nc7)CC6)C5)c4)cn3)CC2)[C@@H]1N (stereo partly shown) [Compound 477]
18,> 1000,CC1(N)CCN(c2cnc(Sc3cccc(NC(=O)C4CC45CCN(c4ccc(C(=O)NCc6ccc7c(c6)CN(C6CCC(=O)NC6=O)C7=O)nn4)CC5)c3)cn2)CC1 (stereo not shown) [Compound 299]
